Numbered stars: 1 amine (or outer) side, 2 acyl side, 3 side chain; on linkers, the order of the positions; unused ones are H or OH. Bridge positions count the residues as written; N and C are the ends. Square brackets hold non-standard residues; d marks the D form. Ends that are not written are not given here. Peptide text beside a SMILES is read from it. dAbu(3S-yl) = C[C@@H]([C@@H](N[*:1])C(=O)[*:2])[*:3]; pGlu = O=C1CC[C@@H](C(=O)O)N1
Key:
Assay type in all cases: cell-based
GAL1R [1] = target: T1, GAL1R (Homo sapiens, UniProt P47211); assay: PathHunter eXpress β-arrestin recruitment assay, GAL1R; design: expressed in transfected cells; conditions: Table 3; CHO-K1 cells co-expressing GAL1R and β-arrestin 2; 10 µM to 5 nM; (average) ratio, (n) in cell = number of assays; NA = ratio above 1000
T1 sequence (P47211 1-349): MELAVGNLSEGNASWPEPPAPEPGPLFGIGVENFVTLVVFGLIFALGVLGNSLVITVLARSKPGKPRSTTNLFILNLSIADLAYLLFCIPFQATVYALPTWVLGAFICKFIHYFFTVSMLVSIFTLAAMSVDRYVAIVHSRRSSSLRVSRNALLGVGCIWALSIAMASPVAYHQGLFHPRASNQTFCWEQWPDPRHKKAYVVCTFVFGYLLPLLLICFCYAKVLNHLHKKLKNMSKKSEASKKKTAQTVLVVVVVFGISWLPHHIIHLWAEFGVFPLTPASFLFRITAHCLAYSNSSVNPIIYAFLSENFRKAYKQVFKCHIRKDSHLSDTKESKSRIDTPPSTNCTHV
Description: (§1) To evaluate the ability of lanthipeptides to recruit ß-arrestins via GAL1R or via GAL2R, we used the PathHunter® eXpress GAL1R, CHO-K1, β-arrestin GPCR Assay and the PathHunter® eXpress GAL2R, CHO-K1, β-arrestin, GPCR Assay from Eurofins-DiscoverX. The assays were performed according to the manufacturer’s instructions. Briefly, for one assay, CHO-K1 cells co-expressing GAL1R or GAL2R and β-arrestin (isoform 2) were diluted in AssayComplete™ Cell Plating Reagent, and 100 µl was seeded into each well of a 96-well plate. The plate was incubated at 37 °C, 5% CO2 in a humidified incubator. A serial 3 × dilution of the lanthipeptides in water was made (10 µM to 5 nM). After 48 h of incubation, 10 µl of the serial dilutions was applied to the cells in duplicate. The agonists were incubated for 90 min at 37 °C. Next, 55 µL of Working Detection Solution was added, and after 1 h of incubation at room temperature in the dark, the chemiluminescent signal was read with a Synergy HT Biotek reader.

GAL1R [2] = target: T1, GAL1R; assay: cAMP Hunter eXpress GAL1R CHO-K1 GPCR assay (inhibition of forskolin-induced cAMP); design: expressed in transfected cells; conditions: Table 3; CHO-K1 cells expressing GAL1R; 20 µM forskolin; 10 µM to 5 nM; (average) ratio, (n) in cell = number of assays; NA = ratio above 1000
Description: To evaluate the ability of lanthipeptides to […] via GAL1R signaling, we used the cAMP Hunter™ eXpress GAL1R CHO-K1 GPCR Assay from Eurofins-DiscoverX. The assay was performed according to the manufacturer’s instructions. Briefly, for one assay, CHO-K1 cells expressing GAL1R were diluted in AssayComplete™ Cell Plating 2 Reagent, and 100 µl was seeded into each well of a 96-well plate. The plate was incubated at 37 °C, 5% CO2 in a humidified incubator. After 24 h of incubation, the media was aspirated, and 45 µl cell assay buffer/antibody mixture was added to all wells. […] Fifteen µl of the serial dilutions was applied in duplicates to the cells. The concentration of forskolin in the assay was 20 µM. The agonists were incubated for 30 min at 37 °C. Next, 15 µL Antibody Solution and 60 μL cAMP Working Detection Solution were added, and the plate was incubated for 1 h in the dark at room temperature. Finally, 60 μL cAMP Solution A was added and, after 3 h of incubation in the dark at room temperature, the chemiluminescent signal was read with a Synergy HT Biotek reader.

GAL2R [3] = target: T2, GAL2R (Homo sapiens, UniProt O43603); assay: Fluo-4 Direct calcium assay (Ca efflux) in HEK293 cells overexpressing GAL2R; conditions: Table 3; HEK293 cells stably overexpressing GAL2R; Fluo-4, from 10 µM; (average) ratio, (n) in cell = number of assays; NA = ratio above 1000
T2 sequence (O43603 1-387): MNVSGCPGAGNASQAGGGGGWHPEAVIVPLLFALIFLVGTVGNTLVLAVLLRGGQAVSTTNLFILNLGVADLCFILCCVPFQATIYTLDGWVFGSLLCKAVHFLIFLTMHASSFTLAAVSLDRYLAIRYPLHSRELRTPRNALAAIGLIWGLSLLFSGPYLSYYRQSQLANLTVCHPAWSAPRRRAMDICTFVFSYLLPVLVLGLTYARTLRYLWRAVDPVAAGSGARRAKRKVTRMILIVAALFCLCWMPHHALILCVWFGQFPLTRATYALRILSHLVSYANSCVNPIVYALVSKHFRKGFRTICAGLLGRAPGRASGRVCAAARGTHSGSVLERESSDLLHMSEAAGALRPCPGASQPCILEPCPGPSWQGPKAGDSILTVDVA
Description: Calcium efflux was measured by using a Fluo-4 Direct Calcium Assay purchased from Thermo Fisher Scientific. HEK293 cells with stable overexpression of GAL2R (HEKR2) (kindly provided by Harald Dargatz, Molecular, Cellular and Pharmacobiology Section, Institute of Pharmaceutical Biology, University of Bonn, 53,115 Bonn, Germany) were used for analysis of the lanthipeptides. HEKR2 cells were seeded in a 96-well plate and grown overnight in DMEM supplemented with 10% FBS, 1% penicillin–streptomycin, 100 µg/ml Normocin, and 500 µg/ml G418 at 37 °C, 5% CO2 in a humidified incubator.
The next day, when the cells were nearly confluent, an equal amount of 2 × Fluo-4 Direct™ calcium reagent loading solution, containing 5 mM probenecid, was added to the wells, and the plate was incubated for 1 h at 37 °C. A serial 3 × dilution of the agonist compound in water was made, and 10 µl of the serial dilutions was applied to the cells in duplicate. The starting concentration of agonist in the assay was 10 µM. After 1–2 h of incubation at room temperature, the fluorescence was measured with excitation at 485/20 nm and emission at 528/20 nm with a Synergy HT Biotek reader.

GAL2R [4] = target: T2, GAL2R; assay: PathHunter eXpress β-arrestin recruitment assay, GAL2R; design: expressed in transfected cells; conditions: Table 3; CHO-K1 cells co-expressing GAL2R and β-arrestin 2; 10 µM to 5 nM; (average) ratio, (n) in cell = number of assays; NA = ratio above 1000
Description: as §1

Row | EC50 ratios to Gal-(1-15), GAL1R ß-Arrestin (GAL1R [1]) | EC50 ratios to Gal-(1-15), GAL1R cAMP (GAL1R [2]) | EC50 ratios to Gal-(1-15), GAL2R Ca-efflux (GAL2R [3]) | EC50 ratios to Gal-(1-15), GAL2R ß-Arrestin (GAL2R [4]) | Compound
1 | 9.6 (1) | 12.2 (1) | 1.0 (1) | 0.5 (1) | [pGlu]WNLNAAGYLLGATAVGCHR (also: sidechain bridge or staple (positions not given here)) [Variant M76b, pyroglutamate- and methyllanthionine-containing galanin variant]
2 | 129 (1) | 13.3 (1) | 2.6 (3) | 4.2 (1) | CC(C)C[C@H](NC(=O)[C@H](CC(C)C)NC(=O)[C@H](Cc1ccc(O)cc1)NC(=O)CNC(=O)[C@H](C)NC(=O)[C@H](C)NC(=O)[C@H](CC(N)=O)NC(=O)[C@H](CC(C)C)NC(=O)[C@H](CC(N)=O)NC(=O)[C@H](Cc1c[nH]c2ccccc12)NC(=O)[C@@H]1CCC(=O)N1)C(=O)NCC(=O)N1CCC[C@H]1C(=O)N[C@@H](Cc1c[nH]cn1)C(=O)N[C@@H](C)C(=O)N[C@H]1C(=O)NCC(=O)N[C@@H](CC(N)=O)C(=O)N[C@H](C(=O)N[C@@H](CCCNC(=N)N)C(=O)O)CS[C@H]1C [Variant M74b] ([pGlu]WNLNAAGYLLGPHA[dAbu(3S-yl)]GNCR-OH; thioether 16-19; C-terminus assumed)
3 | 1.0 (1) | 0.6 (1) | 0.9 (1) | 1.0 (1) | GWNLNAAGYLLGATAVGCHR (also: sidechain bridge or staple (positions not given here)) [Variant M76, methyllanthionine-containing galanin variant produced in L. lactis]
4 | 8.3 (1) | 7.5 (2) | 1.9 (1) | 0.6 (1) | GWNLNAAGYLLGPHTVGCHR (also: sidechain bridge or staple (positions not given here)) [Variant M52, methyllanthionine-containing galanin variant produced in L. lactis]
5 | 18.0 (1) | 11.6 (1) | 4.7 (1) | 6.2 (1) | GWNLNAAGYLLGPTAVC (also: sidechain bridge or staple (positions not given here)) [Variant M85, methyllanthionine-containing galanin variant produced in L. lactis]
6 | 2.7 (1) | 4.9 (1) | 4.6 (1) | 3.2 (1) | GWNLNAAGYLLGATAVC (also: sidechain bridge or staple (positions not given here)) [Variant M90, methyllanthionine-containing galanin variant produced in L. lactis]

Row | Compound | EC50 ratios to Gal-(1-15), GAL1R ß-Arrestin (GAL1R [1]) | EC50 ratios to Gal-(1-15), GAL1R cAMP (GAL1R [2]) | EC50 ratios to Gal-(1-15), GAL2R Ca-efflux (GAL2R [3]) | EC50 ratios to Gal-(1-15), GAL2R ß-Arrestin (GAL2R [4])
7 | [pGlu]WNLNAAGYLLGPHTVGCHR (also: sidechain bridge or staple (positions not given here)) [Variant M83, pyroglutamate- and methyllanthionine-containing galanin variant] | 123 (1) | NA (1) (NA is not active; ratios above 1000 were considered to be not active) | 7.3 (1) | 78 (1)
8 | [pGlu]WNLNAAGYLLGATAVC (also: sidechain bridge or staple (positions not given here)) [Variant M91, pyroglutamate- and methyllanthionine-containing galanin variant] | 3 (1) | NA (1) (NA is not active; ratios above 1000 were considered to be not active) | 1.3 (1) | 1.5 (1)
9 | GWNLNAAGYLLATHACG (also: sidechain bridge or staple (positions not given here)) [Variant M89, methyllanthionine-containing galanin variant produced in L. lactis] | 148 (1) | NA (1) (NA is not active; ratios above 1000 were considered to be not active) | 2.7 (1) | 3 (1)
10 | GWNLNAAGYLLGTHACG (also: sidechain bridge or staple (positions not given here)) [Variant M84, methyllanthionine-containing galanin variant produced in L. lactis] | 35 (1) | – | 6.3 (1) | NA (1) (NA is not active; ratios above 1000 were considered to be not active)
11 | GWNLNAATYLCGPHAVGNHR (also: sidechain bridge or staple (positions not given here)) [Variant M60, methyllanthionine-containing galanin variant produced in L. lactis] | – | NA (2) (NA is not active; ratios above 1000 were considered to be not active) | 8.7 (1) | NA (1) (NA is not active; ratios above 1000 were considered to be not active)
12 | [pGlu]WNLNAAGYLLGATAVCNH (also: sidechain bridge or staple (positions not given here)) [Variant M54tr, pyroglutamate- and methyllanthionine-containing galanin variant] | NA (1) (NA is not active; ratios above 1000 were considered to be not active) | 16 (1) | 1.2 (2) | 1 (1)

Reference: PMC8804135 (Neurotherapeutics, 2021)
